pIC50: −log10 of the molar value. Like-named read-outs stand apart in the source and are kept apart here.
Key:
[1] = biological target: T1, Renilla luciferase (RLuc) (Renilla reniformis, UniProt P27652); assay: RLuc enzymatic assay (purified enzyme, qHTS, 1536-well); assay type: biochemical; conditions: 1 nM RLuc, 5 µM coelenterazine-H
T1 sequence (P27652 1-311): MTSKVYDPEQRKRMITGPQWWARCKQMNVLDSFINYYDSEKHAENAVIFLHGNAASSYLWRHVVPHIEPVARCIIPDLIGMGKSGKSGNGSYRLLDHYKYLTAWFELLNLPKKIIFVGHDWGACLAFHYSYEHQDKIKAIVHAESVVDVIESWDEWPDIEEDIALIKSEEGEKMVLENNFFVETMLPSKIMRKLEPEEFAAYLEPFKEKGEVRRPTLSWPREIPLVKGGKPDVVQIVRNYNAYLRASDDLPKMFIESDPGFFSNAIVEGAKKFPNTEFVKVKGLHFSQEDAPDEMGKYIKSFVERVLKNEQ
Protocol: (§1) 1 µL of purified luciferase was then dispensed into each well for final concentrations 10 nM FLuc or 1 nM RLuc. The bioluminescence outputs were measured by an EnVision reader (PerkinElmer, Wellesley, MA). Due to the relatively short luminescence duration of the RLuc assay, dispense time constants were set to match closely to the read time of the plate reader. As a result, each individual well was read with approximately the same time delay from reagent dispense to signal acquisition. See Table 1 for the 1536-well assay protocols.
(§2) Data from each assay was normalized plate-wise to corresponding intraplate controls as described previously, [17]. The same control data sets were also used for the calculation of Z′ factors from each assay. In all assays, wells containing DMSO were used as no-response controls. For the FLuc enzymatic assay, each compound-treated well on the plate was normalized to the average readings of n = 24 PTC124 treated wells and n = 48 DMSO wells from the same plate. Wells were scaled to a full range of DMSO and zero, and then normalized using the maximum response observed in the screen as 100% activity. For the RLuc enzymatic assay, n = 24 BTS treated wells for the positive control, n = 48 DMSO. MSR values were calculated using the cumulative potency differences of the de-interleaved duplicate control titrations from each plate as previously described. The normalized data from each assay plate set was corrected using DMSO-only treated assay plates read at the start and end of each assay run, and the resulting inter-plate titration data fit, using in-house software, to the standard Hill equation and dose-response curves automatically classified as described previously.
(§3) The curve classification scheme for assignment of resulting curve-fit data into CRC classes was according to Inglese et al. as follows: class 1 curves (far left) display two asymptotes, an inflection point, and r^2≥0.9; subclasses 1a vs. 1b are differentiated by full (>80%) vs. partial (≤80%) response. Class 2 curves (second from left) display a single left-hand asymptote and inflection point; subclasses 2a (or 2.1) and 2b (2.2) are differentiated by a max response and r^2, >80% and >0.9 or <80% and <0.9, respectively. Class 3 curves (second from right) have a single left-hand asymptote, no inflection point, and a response >3SD from the mean activity of the sample field.

[2] = biological target: firefly luciferase, Photinus pyralis (FLuc) (Photinus pyralis, UniProt P08659); assay: biochemical; assay type: biochemical; conditions: for FLuc Parameters Hill Coef: Hill equation fit of CRC; for Emax: response relative to PTC124 control inhibitor, negative = inhibition, read-out: FLuc Parameters Efficacy
Protocol: as §1, with “The” for “1 µL of purified luciferase was then dispensed into each well for final concentrations 10 nM FLuc or 1 nM RLuc. The”
as §2, §3

[3] = tested on: JNK3; set-up: method as in Angell, R.M., et al. 2007; conditions: ref Angell, R.M., et al. 2007; read-out: PKI IC50 (µM), JNK3; cited from earlier work
[4] = tested on: p38; set-up: method as in Angell, R.M., et al. 2008; conditions: ref Angell, R.M., et al. 2008; read-out: PKI IC50 (µM), p38; cited from earlier work
[5] = tested on: TRKA; set-up: method as in Wood, E.R., et al. 2004; conditions: ref Wood, E.R., et al. 2004; read-out: PKI IC50 (µM), TRKA; cited from earlier work
[6] = tested on: VEGFR; set-up: method as in Sammond, D.M., et al. 2005; conditions: ref Sammond, D.M., et al. 2005; read-out: PKI IC50 (µM), VEGFR; cited from earlier work
[7] = tested on: GSK3β; conditions: ref Peat, A. J., et al., 2004; read-out: PKI IC50 (µM), GSK3β; cited from earlier work
[8] = tested on: RHO; set-up: method as in Stavenger, R. A., et al. 2007; conditions: ref Stavenger, R. A., et al. 2007; read-out: PKI IC50 (µM), RHO; cited from earlier work
[9] = tested on: CDK2; conditions: ref Bramson, H. N., et al., 2001; read-out: PKI IC50 (µM), CDK2; cited from earlier work
[10] = tested on: LCK; set-up: method as in Bamborough, P., et al. 2007; conditions: ref Bamborough, P., et al. 2007; read-out: PKI IC50 (µM), LCK; cited from earlier work
[11] = 10 nM FLuc, 10 µM D-luciferin, 10 µM ATP, read-out: FLuc Parameters IC50
[12] = Figure 3, read-out: IC50 (FLuc)
[13] = Figure 2b, representative structures of clusters, read-out: FLuc IC50
[14] = Figure 4b, read-out: FLuc (IC50)
[15] = Figure 2b, representative structures of clusters

Chain of firefly luciferase, Photinus pyralis (FLuc) (P08659 whole entry): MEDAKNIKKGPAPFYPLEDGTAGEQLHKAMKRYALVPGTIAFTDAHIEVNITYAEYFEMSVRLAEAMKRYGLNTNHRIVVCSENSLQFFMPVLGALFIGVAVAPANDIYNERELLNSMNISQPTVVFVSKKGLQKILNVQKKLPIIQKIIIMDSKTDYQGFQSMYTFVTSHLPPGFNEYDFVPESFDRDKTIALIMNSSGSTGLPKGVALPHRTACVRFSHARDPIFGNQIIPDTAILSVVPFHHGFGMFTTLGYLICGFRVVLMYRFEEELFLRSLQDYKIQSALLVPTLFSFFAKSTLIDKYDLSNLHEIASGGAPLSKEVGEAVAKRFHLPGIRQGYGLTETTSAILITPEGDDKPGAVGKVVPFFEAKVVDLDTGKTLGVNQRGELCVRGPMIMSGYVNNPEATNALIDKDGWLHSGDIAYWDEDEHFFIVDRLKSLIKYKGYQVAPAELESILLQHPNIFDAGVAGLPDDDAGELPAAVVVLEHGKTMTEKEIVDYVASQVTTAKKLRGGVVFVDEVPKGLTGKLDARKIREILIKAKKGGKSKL

SMILES	RLuc Curve Class [1]	pIC50 [2, 11]	FLuc Parameters Hill Coef [2]	pIC50 ([2]; Table 3, read-out: FLuc IC50)	Emax [2]	also measured
N#Cc1c(NC(=O)c2ccc(F)cc2)sc2c1CCCC2 [SB-347804]	4	6.04	1.48	6.04	72.5%	IC50 [3]: 3.16 µM
COc1ccc(Nc2ncc(-c3ccccc3)o2)cc1OC [GW575533A]	4	5.24	1.17	5.24	90%	
COC(=O)Nc1nc2cc(Oc3ccc(NC(=O)Nc4cccc(Br)c4)cc3)ccc2[nH]1 [GW694234A]						pIC50 [2, 12]: < 4.52
c1ccc(Nc2ncc(-c3ccccc3)o2)cc1 [GW549390X]	4	6.59	1.1	6.59	98.6%	
COc1ccc(-c2ccc3c(NC(=O)C4CC4)n[nH]c3n2)cc1 [SB-711237]	4	5.64	0.8	5.64	44.8%	
O=C(NCC1CC1)c1ccc(-c2cccc(C(=O)NC3CC3)c2)cc1 [GW806776X]		5.04	1.51	5.04	35.2%	IC50 [4]: 0.075 µM
COc1cccc(-n2cnc3c(N/N=C/c4ccncc4)ncnc32)c1 [GW813360X]						pIC50 [2, 12]: 4.80
CS(=O)(=O)CCNCc1coc(-c2ccc3ncnc(Nc4ccc(OCc5ccccc5)cc4)c3c2)c1 [GW566221A]						pIC50 [2, 13]: 4.92
O=C1Nc2ccccc2/C1=C/Nc1ccc2[nH]c(=O)[nH]c2c1 [GW284408X]	4	5.39	1.93	5.39	37.9%	IC50 [5]: 0.007 µM
CN(c1ccc(NC(=O)Nc2c(Cl)cccc2Cl)cc1)c1ccnc(Nc2cccc(CS(C)(=O)=O)c2)n1 [GW809897X]	4	6.24	1.11	6.24	109%	pIC50 [2, 14]: 6.25; IC50 [6]: 0.065 µM
Cc1cccc(Nc2ncc(-c3ccccc3)o2)c1 [GW632046X]	4	6.24	1.11	6.24	104%	
COc1cccc(-c2c[nH]c3c(N/N=C/c4ccncc4)ncnc23)c1 [GW814408X]						pIC50 [2, 13]: 5.22; pIC50 [2, 14]: 5.24
CC(C)c1ccc2c(c1)NC(=O)C2=NNc1ccc(S(N)(=O)=O)cc1 [GW300653X]						FLuc IC50 [2, 15]: Inactive
O=C1Nc2ccccc2/C1=C1\CCc2cc(O)ccc21 [GR105659X]		5.29	1.01	5.29	103%	IC50 [5]: 0.006 µM
CCN(CC)S(=O)(=O)c1ccc(OC)c(Nc2ncc(-c3ccccc3)o2)c1 [GW572401X]						pIC50 [2, 12]: < 4.70
COc1cc(/C=N/Nc2ncnc3[nH]ncc23)ccc1O [GW578748X]	4	5.44	1.33	5.44	82.3%	pIC50 [2, 12]: 5.43; IC50 [7]: 3.16 µM
COC(=O)Nc1nc2ccc(Oc3ccc(NC(=O)Nc4cccc(C(=O)O)c4)cc3)cc2[nH]1 [GW701427A]		6.92	1.69	6.92	102%	

SMILES	RLuc Curve Class [1]	pIC50 [2, 11]	FLuc Parameters Hill Coef [2]	pIC50 ([2]; Table 3, read-out: FLuc IC50)	Emax [2]	also measured
O=C1NC(=O)C(c2ccc(Cl)cc2)=C1Nc1ccc(Cl)c(C(=O)O)c1 [SB-360741]						FLuc IC50 [2, 15]: inactive
NS(=O)(=O)c1cccc(N/C=C2\C(=O)Nc3ccccc32)c1 [GW275616X]						pIC50 [2, 13]: 4.74
O=C(Nc1n[nH]c2cc(-c3ccccc3)ccc12)C1CC1 [SB-732941]						pIC50 [2, 13]: 4.74
COC(=O)Nc1nc2ccc(Oc3ccc(NC(=O)Nc4cccc(Cl)c4)cc3)cc2[nH]1 [GW589961A]						pIC50 [2, 12]: < 4.52
COc1cccc(-n2ncc3c(N/N=C/c4ccncc4)ncnc32)c1 [GW784752X]						pIC50 [2, 12]: 5.19
N#Cc1c(NC(=O)c2ccccc2F)sc2c1CCCC2 [GW572738X]	4	6.09	1.66	6.09	82.6%	IC50 [3]: 0.4 µM
COc1cccc(-n2ncc3c(N/N=C/c4ccc(C(=O)NCCN(C)C)cc4)ncnc32)c1 [GW784307A]						pIC50 [2, 12]: 4.80
COc1cc(/C=N/Nc2ncnc3c2cnn3C(C)C)ccc1O [GW644007X]	4	5.24	1.86	5.24	40.7%	IC50 [7]: 2.51 µM
COC(=O)Nc1nc2cc(Oc3ccc(NC(=O)Nc4ccccc4)cc3)ccc2[nH]1 [GW694590A]						pIC50 [2, 13]: 4.82; pIC50 [2, 12]: 4.84; pIC50 [2, 14]: 4.85
CCc1cccc(NC(=O)Nc2ccc(Oc3ccc4nc(NC(=O)OC)[nH]c4c3)cc2)c1 [GW673715X]						pIC50 [2, 12]: < 4.52
COc1cccc(-n2ncc3c(N/N=C/c4ccc(F)cc4)ncnc32)c1 [GW817396X]						pIC50 [2, 12]: 4.48
CCn1c(-c2nonc2N)nc2cnc(Oc3cccc(NC(=O)c4ccc(N(C)C)cc4)c3)cc21 [GSK248233A]	4	5.99	0.9	5.99	98.9%	IC50 [8]: 0.002 µM; pIC50 [2, 14]: 6.00
COc1cc(Nc2ncc(-c3ccccc3)o2)cc(OC)c1 [GW631581B]	4	5.19	1.29	5.19	88.5%	
C/C(Nc1ccc(S(N)(=O)=O)cc1)=C1/C(=O)Nc2ccccc21 [GW335962X]	4	5.44	1.51	5.44	68.8%	IC50 [9]: 0.36 µM
NC(=O)c1cccc(Nc2nccc(Nc3cccc(F)c3)n2)c1 [GW759710A]	4	6.14	1.21	6.14	98.6%	IC50 [10]: 3.3 µM
N#Cc1cccc(Nc2ncc(-c3ccccc3)o2)c1 [GW627834A]	4	5.99	1.21	5.99	84.1%	pIC50 [2, 13]: 6.00
Cc1ccc(Nc2ccnc(Nc3cccc(C(N)=O)c3)n2)cc1O [GW575808A]	4	5.84	1.54	5.84	106%	IC50 [10]: 0.19 µM
